In patent US20230067064A1, “METHODS AND COMPOSITIONS FOR MODULATING SPLICING” (SkyHawk Therapeutics, Inc., priority 2019, published 2023):
Where two headings read alike, the source gives them in different places.

Columns and labels:
mHTT protein = mHTT protein assay, 2B7-MW1 Mesoscale Discovery (MSD); format: cell-based, human; conditions: GM04724 lymphoblast cells, 48 hours, 2B7-MW1 MSD; average; read-out: HTT Potency - Protein & Cytotoxicity: EC50 mHTT (average)
Description: Compounds are tested on GM04724 (CAG 70/20) Huntington's disease patient lymphoblast cells at doses ranging from 10 μM to 0.6 nM. 4,500 cells/well are seeded in 384 well plates. One plate replica is carried out for parallel viability testing by CellTiter Glo (CTG). Compounds are incubated for 48 hours. mHTT protein levels are assessed by the 2B7-MW1 assay via Mesoscale Discovery (MSD) as previously reported (Macdonald et al., 2014). The antibody pair is comprised of previously characterized monoclonals (2B7 and MW1) interrogating two regions for HTT conformation and biological properties: the N17 domain and the polyQ domain (Baldo et al., 2012; Ko et., 2001). 2B7-MW1 is dependent on subject/animal specific levels of HTT at the time of treatment. 2B7-MW1 is dependent on polyQ expansion (e.g., the higher the expansion the higher the signal) and on mHTT size (e.g., a similar polyQ will give higher signal with smaller HTT size). The viability readout is carried out by CTG according to the manufacturer's instructions. The results are show in Table A-10.

[1] = system: SMN FL and SMN Δ7 mRNA, spinal muscular atrophy (SMA) patient fibroblasts (GM03813); test: Quantitative splicing assay (SMN); format: cell-based, human; conditions: 24 h, average; for IC50: read-out: SMN2 Potency - Splicing: Splicing D7 IC50 (average); for EC50: read-out: SMN2 Potency - Splicing: Splicing FL EC50 (average)
Description: Spinal muscular atrophy (SMA) patient fibroblasts (GM03813, Coriell) are plated in 96-well plates at 50,000 cells/well. […] Treated cells are lysed and cDNA synthesized using the Fast Advanced Cells-to-Ct kit (Thermofisher A35378) according to the manufacturer's instructions. 2 μL of each cDNA are used in qPCR reactions. […] Reactions are run in a Quant Studio 6 qPCR instrument with default settings.

[2] = system: cryptic exon within intron 49 of the Huntingtin (HTT) transcripts, GM04724 (CAG 70/20) Huntington's disease patient lymphoblasts; test: Quantitative splicing assay (HTT); format: cell-based, human; conditions: average
Description: GM04724 (CAG 70/20) Huntington's disease patient lymphoblasts (Coriell) are plated in 96-well v-bottom plates at 50,000 cells/well. Immediately after plating, cells are dosed with compound for 24 h at concentrations ranging from 2.5 uM to 0.15 nM (0.1% DMSO). Treated cells are lysed and cDNA synthesized using the Fast Advanced Cells-to-Ct kit (Thermofisher A35378) according to the manufacturer's instructions. 2 uL of each cDNA are used in qPCR reactions to confirm the compound-induced inclusion of a cryptic exon within intron 49 of the Huntingtin (HTT) transcripts. The qPCR reactions are prepared in 384-well plates in 10 uL volume, using TaqMan™ Fast Advanced Master Mix [ThermoFisher; 4444965] with primers and probes shown in the table below. Reactions are run in a Quant Studio 6 qPCR instrument with default settings.

SMN protein = SMN protein assay, Mesoscale Discovery (MSD); format: cell-based, human; conditions: SMA patient fibroblasts (GM03813), 48 hours, average, read-out: SMN2 Potency - Protein: Protein FL EC50 (average)
Description: Compounds are tested on spinal muscular atrophy (SMA) patient fibroblasts (GM03813, Coriell) at doses ranging from 2.5 μM to 0.6 nM. 7000 cells/well are seeded in 96-well plates. Compounds are incubated for 48 hours and the cells were lysed with 100 μL of lysis buffer. 20 μL of lysate is used for SMN protein measurement by Mesoscale Discovery (MSD) assay developed by PharmOptima (Michigan). A standard curve prepared with SMN protein ranging from 1 μg/ml to 19.5 pg/ml is used in each MSD plate to calculate the absolute SMN protein amount in each sample.

[3] = system: MDR1-MDCK cell monolayers; test: MDCK-MDR1 permeability assay, blood-brain-barrier (BBB) penetration potential; format: in vitro ADME; conditions: for General MDCK-MDR1: % Recov A-B: A-B direction; for General MDCK-MDR1: % Recov B-A: B-A direction; for General MDCK-MDR1: Efflux: efflux ratio
Description: Each determination is performed in duplicate. […] Analytical conditions are outlined below.
Papp=(dCr/dt)×Vr/(A×CA) (1)

[4] = read-out: HTT Potency - Splicing: E49-50 EC50 (average)
[5] = read-out: HTT Potency - Splicing: E49b EC50 (average)

With C[C@]12CC[C@H](C[C@@H](Oc3ccc(-c4ccc(-n5ccnc5)cc4O)nn3)C1)N2 (single isomer, unassigned; ent1) [303-Ent1] the EC50 (mHTT protein) was 0.01 to 15 nM, the IC50 [1] was 16 to 50 nM and the EC50 [1] was 101 to 500 nM. For the same molecule, the EC50 [2, 4] was 16 to 50 nM, the EC50 [2, 5] was 16 to 50 nM and the EC50 (SMN protein) was 0.01 to 15 nM. The “General MDCK-MDR1: % Recov A-B” value [3] was 90%, the “General MDCK-MDR1: % Recov B-A” value [3] was 90% and the “General MDCK-MDR1: Efflux” value [3] was 40.
Work on CN(c1ccc(-c2ccc(-n3ccnc3)cc2O)nn1)[C@@H]1C[C@H]2CC[C@@](C)(C1)N2 (single isomer, unassigned; ent1) [304-Ent1] yielded an EC50 (mHTT protein) of 0.01 to 15 nM, an EC50 [2, 4] of 0.01 to 15 nM and an EC50 [2, 5] of 0.01 to 15 nM. The EC50 (SMN protein) was 0.01 to 15 nM, the “General MDCK-MDR1: % Recov A-B” value [3] was 94% and the “General MDCK-MDR1: % Recov B-A” value [3] was 90%. The “General MDCK-MDR1: Efflux” value [3] was 137.
In the case of C[C@]12CC[C@H](C[C@@H](Oc3ccc(-c4ccc(-c5cn[nH]c5)cc4O)nn3)C1)N2 (single isomer, unassigned; ent1) [309-Ent1], the EC50 (mHTT protein) is reported as 0.01 to 15 nM, the IC50 [1] is reported as 0.01 to 15 nM and the EC50 [2, 4] is reported as 0.01 to 15 nM. The EC50 [2, 5] was 0.01 to 15 nM, the EC50 (SMN protein) was 0.01 to 15 nM and the “General MDCK-MDR1: % Recov A-B” value [3] was 93%. For the same molecule, the “General MDCK-MDR1: % Recov B-A” value [3] was 93% and the “General MDCK-MDR1: Efflux” value [3] was 68.
With COc1cc(-c2ccc(-c3ccc(N(C)[C@@H]4C[C@H]5CC[C@@](C)(C4)N5)nn3)c(O)c2)cnn1 (single isomer, unassigned; ent1) [310-Ent1] the EC50 (mHTT protein) was 0.01 to 15 nM, the EC50 (SMN protein) was 501 to 10000 nM and the “General MDCK-MDR1: % Recov A-B” value [3] was 94%. The “General MDCK-MDR1: % Recov B-A” value [3] was 89% and the “General MDCK-MDR1: Efflux” value [3] was 130.
For COc1cc(-c2ccc(-c3ccc(N(C)[C@@H]4C[C@H]5CCC[C@@](C)(C4)N5)nn3)c(O)c2)cnn1 (single isomer, unassigned; ent1) [311-Ent1], the EC50 (mHTT protein) was 0.01 to 15 nM, the EC50 (SMN protein) was 16 to 50 nM and the “General MDCK-MDR1: % Recov A-B” value [3] was 93%. The “General MDCK-MDR1: % Recov B-A” value [3] was 96% and the “General MDCK-MDR1: Efflux” value [3] was 180.
In the case of COCC12CCC(CC(N(C)c3ccc(-c4cc(F)c(-n5ccnc5)cc4O)nn3)C1)N2 (single isomer, unassigned; ent1) [315-Ent1], the EC50 (mHTT protein) is reported as 0.01 to 15 nM, the IC50 [1] is reported as 0.01 to 15 nM and the EC50 [1] is reported as 0.01 to 15 nM. The EC50 [2, 4] was 0.01 to 15 nM, the EC50 [2, 5] was 0.01 to 15 nM and the EC50 (SMN protein) was 0.01 to 15 nM. The “General MDCK-MDR1: % Recov A-B” value [3] was 109%, the “General MDCK-MDR1: % Recov B-A” value [3] was 108% and the “General MDCK-MDR1: Efflux” value [3] was 103.
In the case of COCC12CCCC(CC(Oc3ccc(-c4ccc(-c5cnn(C)c5)cc4O)nn3)C1)N2 (single isomer, unassigned; ent1) [316-Ent1], the EC50 (mHTT protein) is reported as 0.01 to 15 nM, the IC50 [1] is reported as 16 to 50 nM and the EC50 [1] is reported as 51 to 100 nM. The EC50 [2, 4] was 16 to 50 nM, the EC50 [2, 5] was 16 to 50 nM and the EC50 (SMN protein) was 0.01 to 15 nM. For the same molecule, the “General MDCK-MDR1: % Recov A-B” value [3] was 84%, the “General MDCK-MDR1: % Recov B-A” value [3] was 96% and the “General MDCK-MDR1: Efflux” value [3] was 43.
CN(c1ccc(-c2ccc(-c3cnn(C)c3)cc2O)nn1)C1CC2CCC(C)(N2)C1F (single isomer, unassigned; ent1) [317-Ent1] gave an EC50 (mHTT protein) of 0.01 to 15 nM, an IC50 [1] of 0.01 to 15 nM and an EC50 [1] of 0.01 to 15 nM. For the same molecule, the EC50 [2, 4] was 0.01 to 15 nM, the EC50 [2, 5] was 0.01 to 15 nM and the EC50 (SMN protein) was 0.01 to 15 nM. The “General MDCK-MDR1: % Recov A-B” value [3] was 73%, the “General MDCK-MDR1: % Recov B-A” value [3] was 98% and the “General MDCK-MDR1: Efflux” value [3] was 17.
Work on CC12CCC(CC(Oc3ccc(-c4ccc(-n5ccnc5)cc4O)nn3)C1)N2 (single isomer, unassigned; ent2) [303-Ent2] yielded an EC50 (mHTT protein) of 0.01 to 15 nM, an IC50 [1] of 16 to 50 nM and an EC50 [1] of 16 to 50 nM. The EC50 [2, 4] was 0.01 to 15 nM, the EC50 [2, 5] was 0.01 to 15 nM and the EC50 (SMN protein) was 0.01 to 15 nM. For the same molecule, the “General MDCK-MDR1: % Recov A-B” value [3] was 86%, the “General MDCK-MDR1: % Recov B-A” value [3] was 88% and the “General MDCK-MDR1: Efflux” value [3] was 62.
With CN(c1ccc(-c2ccc(-n3ccnc3)cc2O)nn1)C1CC2CCC(C)(C1)N2 (single isomer, unassigned; ent2) [304-Ent2] the EC50 (mHTT protein) was 0.01 to 15 nM, the EC50 [2, 4] was 0.01 to 15 nM and the EC50 [2, 5] was 0.01 to 15 nM. For the same molecule, the EC50 (SMN protein) was 0.01 to 15 nM, the “General MDCK-MDR1: % Recov A-B” value [3] was 87% and the “General MDCK-MDR1: % Recov B-A” value [3] was 83%. For the same molecule, the “General MDCK-MDR1: Efflux” value [3] was 109.
